For 29 molecules, EC50, IC50 and outcome results are on record in PubChem BioAssay AID179 (DTP/NCI, 2004).

The test concerns CEM cells HIV-1 protection, formazan growth assay. Description: NCI AIDS Antiviral Assay. The note with it: for IC50: measured here: growth of uninfected CEM cells. The procedure, abridged:
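Protection of CEM cells against HIV-1 measured as cell growth via soluble formazan read-out, with five concentrations tested on both infected and uninfected cells; failure to protect may reflect toxicity.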

Where “and” joins values, the source holds several entries; their conditions need not be identical. Identical values can stand only once. Calls of active or inactive are those of the source.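 How the source made its calls: active means compounds giving half or more protection of infected cells from virus-caused growth loss, again on retest; inactive means the rest.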

For `O=S(=O)([O-])c1ccc(N=Cc2ccccc2[O-])cc1.O=S(=O)([O-])c1ccc(N=Cc2ccccc2[O-])cc1.[Co+2]`, the EC50 is greater than 407 µM and the IC50 is 23.4 µM.
As to `CC(C)C1=CC23CCC4C(C)(C(=O)O)CCCC4(C)C2CC1C1C(=O)N(c2ccccc2)C(=O)C13` (configuration not stated), the EC50 was greater than 52.5 µM and the IC50 is greater than 52.5 µM.
On to `Cc1nn2c(=O)c([N+](=O)[O-])c(/C=C/c3ccc(F)cc3)nc2s1`, for which the EC50 was greater than 200 µM and the IC50 was determined as 5.25 µM.
In the same order, the values of `CCCn1c(SC)nc(COC(=O)NC)c1COC(=O)NC` are greater than 200 µM and greater than 200 µM.
In the same order, the values of `CCO[Si](C)(OCC)OCC` are greater than 200 µM and greater than 200 µM.
On to `C/C(=N\Nc1ccc2ccccc2n1)c1ccccn1`, for which the EC50 was greater than 0.2 µM and the IC50 came out at 0.11 µM.
In the same order, the values of `Cc1cn(C2CC(NO)C(CO)O2)c(=O)[nH]c1=O` (configuration not stated) are 38.9 µM and 178 µM.
Regarding `O=P(O)(OCC(O)O)OCC(O)O`, the outcome was inactive.
As to `C/C=C/OC1C(C2COC(C)(C)O2)OC2OC(C)(C)OC21` (configuration not stated), the EC50 was greater than 200 µM and the IC50 was greater than 200 µM.
For `O=C(C[P+](c1ccccc1)(c1ccccc1)c1ccccc1)c1ccccc1`, the EC50 is greater than 200 µM; the IC50 is 32.4 µM and 31.6 µM and 37.2 µM.
`[O-][N+]1=C2CCC/C(=N/O)C2(O)C2CCCCC21N1CCOCC1` (configuration not stated): the EC50 was greater than 200 µM and the IC50 was greater than 200 µM.
Turning to `CC(C)(C)[Si](C)(C)OCC1OC(n2ccc(=O)[nH]c2=O)C(O[Si](C)(C)C(C)(C)C)/C1=C/C(N)=N\O` (configuration not stated), the EC50 is greater than 200 µM and the IC50 stood at 9.12 µM.
In the same order, the values of `COC(=O)NC(Cc1ccccc1)NC(C)=O` (configuration not stated) are greater than 200 µM and greater than 200 µM.
The like results for `O=c1ncc2ccc([N+](=O)[O-])cc2[nH]1` were, in that order, greater than 186 µM and 148 µM.
The like results for `Cc1cc(C)c(S(=O)(=O)Sc2nnnn2-c2ccccc2)c(C)c1` were, in that order, greater than 20 µM and greater than 20 µM.
For `CN(C)c1ccc(C=C(C(=O)O)C(=O)O)cc1`, the EC50 was greater than 550 µM and the IC50 was greater than 550 µM.
For `CCOC(=O)Cc1csc(/N=C\c2c(O)c3ccccc3oc2=O)n1`, the EC50 is greater than 200 µM and the IC50 was 40.7 µM.
In the same order, the values of `COc1cccc(C2c3cc4c(cc3OC(NNc3ccccc3)C2C)OCO4)c1O` (configuration not stated) are greater than 200 µM and 11.2 µM.
The like results for `O=C(/C=C/c1ccccc1)CCN1CCN(CCC(=O)/C=C/c2ccccc2)CC1` were, in that order, greater than 200 µM and 1.51 µM.
In the same order, the values of `COc1ccc(CC2COC(=O)[C@@H]2Cc2cccc(O)c2)cc1OC` (some centres not stated) are greater than 200 µM and 155 µM.
For `CCCCCCC(c1cc(Cl)c(OC)c(C(=O)OC)c1)c1cc(Cl)c(OC)c(C(=O)OC)c1`, the EC50 was greater than 36.3 µM and the IC50 is greater than 36.3 µM.
As to `COc1cc2c(cc1OC)C(O)[C@H](Br)C(C)(C)O2` (some centres not stated), the EC50 was greater than 158 µM and the IC50 stood at 89.1 µM.
The like results for `C=CC(C)NC(=S)NNC(=S)NC` (configuration not stated) were, in that order, greater than 200 µM and 89.1 µM.
The like results for `COC(=O)C12CCC(C(=O)OC)(CC1)n1c(=O)n(-c3ccccc3)c(=O)n12` were, in that order, greater than 200 µM and greater than 200 µM.
The like results for `CC(=O)C(CN(Cc1ccccc1)Cc1ccccc1)C(c1ccccc1)c1c(O)c2ccccc2oc1=O` (configuration not stated) were, in that order, greater than 170 µM and greater than 100 µM.
For `CCOC(=O)CCC(NC(=O)c1ccc(Nc2nc3ccccc3nc2C(=O)OCC)s1)C(=O)OCC` (configuration not stated), the EC50 was greater than 200 µM and the IC50 was greater than 200 µM.
As for `CC(C)=CCN(N=O)c1ncnc2nc[nH]c12`, the EC50 was greater than 200 µM and the IC50 was greater than 200 µM.
As for `COC(=O)C1=CC2C(=O)c3ccccc3C1(c1ccccc1)N2C1CCCCC1` (configuration not stated), the EC50 was greater than 200 µM and the IC50 was determined as 21.4 µM.
The like results for `CC(=O)NC1=C(C)C(=O)c2c(nc3n2CCC3OC(=O)c2ccccc2)C1=O` (configuration not stated) were, in that order, greater than 200 µM and 0.977 µM.
